Entries after “also recorded” stand apart in the source; their conditions may differ.
Columns and labels:
Assay type in all cases: cell-based, human
[1] = test system: MHC-I, PSMB8, PSMB9, and PSMB10; test: Immunoblot of IFNG-induced MHC-I and immunoproteasome protein in MB135 myoblasts treated with inhibitors; details: MB135 myoblasts without DUX4 induction, agent then IFNG 16 h; 4EGI-1 at 50 uM
Procedure: To test if mTOR inactivation was sufficient to block MHC-I and immunoproteasome protein levels in the absence of DUX4, parental MB135 myoblasts were treated with mTOR inhibitors everolimus or Torin2. Everolimus is a second-generation rapamycin analog with binding specificity for mTORC1. […] To further validate the role of 4EBP1 in blocking MHC-I and immunoproteasome protein expression, MB135 cells were treated with 4EGI-1, a small molecule that pharmacologically mimics 4EBP function and inhibits eIF4E.
(§1) Protein samples were harvested in RIPA buffer [150 mM NaCl, 1% NP-40, 0.5% Na-deocycholate, 1% SDS, 25 mM Tris-HCl pH7.4] supplemented with protease and phosphatase inhibitor tablets (Pierce), followed by sonication in Diagenode Bioruptor. Lysate was cleared by centrifugation at 16000×g and quantified using a Pierce BCA assay (Thermo Fisher Scientific). Samples were run on NuPAGE precast polyacrylamide gels (Invitrogen) and transferred to PVDF membrane. Membranes were blocked in PBS containing 0.1% Tween-20 and 5% non-fat dry milk before overnight incubation at 4° C. with primary antibodies (see resource table for a list of antibodies used in this study). Membranes were incubated with horseradish peroxidase-conjugated secondary antibodies for 1 hour at room temperature and SuperSignal chemiluminescent substrate (Thermo Scientific) was used for detection on film with a Mini-medical 90 processor. Membranes were stripped with Restore Western Blot Stripping Buffer (Pierce).

[2] = test system: eIF2-alpha, RPS6, 4EBP1, eIF4E, eEF2; test: Immunoblot of translational regulators; details: parental MB135 myoblasts treated with mTOR inhibitor
Procedure: as §1

[3] = test system: HLA-A, HLA-B, HLA-C, PSMB8, PSMB9, PSMB10 mRNA; test: mRNA levels of MHC-I and immunoproteasome genes (RT-PCR, RNA-seq); details: MB135 cells, 50 uM, data not shown
Procedure: Myoblasts were transfected with either (final concentrations) 10 μM 2′,3′-cGAMP (Sigma Aldrich), 2 μg/mL poly(I:C) (Invitrogen), or 1 μg/mL 3′ppp-dsRNA RIG-I ligand (Dan Stetson Lab, UW) using Lipofectamine 2000 according to manufacturer's protocol, or were stimulated with 1000U IFNβ (PeproTech) or 200 ng/ml IFNγ (R+D Systems) by addition directly to cell culture medium. After 16 hours of immune stimulation, RNA was collected from cells using the NucleoSpin RNA Kit (Macherey-Nagel) according to manufacturer's instructions. RNA samples were quantified by nanodrop and 1 μg of RNA per sample was treated with DNase I Amplification Grade (Thermo Fisher), and then synthesized into cDNA using the Superscript IV First-Strand Synthesis System, including oligo dT primers (Invitrogen). qPCR was run in 384-well plates on an Applied Biosystems QuantStudio 6 Flex Real-Time PCR System (ABI) and analyzed in Microsoft Excel.
Total RNA was isolated using the NucleoSpin RNA kit (Machery-Nagel) or Direct-zol RNA Mini-Prep Kit (Zymo Research) according to manufacturer's instructions. RNA-seq libraries were prepared using the Illumina TruSeq RNA Sample Prep v2 Kit and sequenced using 50 bp paired-end sequencing on the Illumina NextSeq platform by the Fred Hutchinson Cancer Center Genomics Core.

SMILES	effect on IFNG-induced MHC-I and immunoproteasome protein in the absence of DUX4 [1]	phosphorylation of 4EBP1 and eIF4E [2]	phosphorylation of RPS6 [2]	effect on mRNA levels of MHC-I and iProteasome subunits [3]
CO[C@H]1C[C@@H]2CC[C@@H](C)[C@@](O)(O2)C(=O)C(=O)N2CCCC[C@H]2C(=O)O[C@H]([C@H](C)C[C@@H]2CC[C@@H](OCCO)[C@H](OC)C2)CC(=O)[C@H](C)/C=C(\C)[C@@H](O)[C@@H](OC)C(=O)[C@H](C)C[C@H](C)/C=C/C=C/C=C/1C [everolimus, reference compound]	did not block MHC-I or immunoproteasome protein expression	4EBP1 phosphorylation and eIF4E phosphorylation remained largely unaltered	blocked S6K phosphorylation of RPS6	
CC(C)C[C@H](NC(=O)[C@H](CCc1ccccc1)NC(=O)CN1CCOCC1)C(=O)N[C@@H](Cc1ccccc1)C(=O)N[C@@H](CC(C)C)C(=O)[C@@]1(C)CO1 [Carfilzomib]	abrogated the accumulation of MHC-I following IFNG treatment			
O=C(O)C(Cc1ccccc1[N+](=O)[O-])=NNc1nc(-c2ccc(Cl)c(Cl)c2)cs1 (mixture of isomers) [4EGI-1]	suppressed IFNG-induced MHC-I and immunoproteasome subunits at the protein level; also recorded: suppressed IFN-induced MHC-I and iProteasome subunits at the protein level			had no effect on mRNA levels
Nc1ccc(-c2ccc3ncc4ccc(=O)n(-c5cccc(C(F)(F)F)c5)c4c3c2)cn1 [Torin2, reference compound]	sufficient to post-transcriptionally repress IFNG-induced MHC-I, PSMB8, PSMB9, and PSMB10 protein expression	complete hypophosphorylation of 4EBP1 and reduced eIF4E phosphorylation	blocked phosphorylation of RPS6	

Reference: US20250339531A1, “DUX4 POLYPEPTIDES AND NUCLEIC ACIDS FOR TREATING INFLAMMATORY AND AUTOIMMUNE CONDITIONS” (Fred Hutchinson Cancer Center, priority 2021, published 2025)
